Laboratory results taken from patent publication US11390604B2 (Hoffmann-La Roche Inc., priority 2019, dated 2022).
Structures can show the parent of a compound that is named as a salt.

Tested on: Acinetobacter baumannii ATCC 17961
Assay: Antimicrobial susceptibility testing: 90% growth inhibitory concentration (IC90) determination
Format: cell-based
Conditions: ATCC17961, Acinetobacter baumannii ATCC 17961, Iso-Sensitest broth, read-out: ATCC 17961 IC90
In short: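 Growth was followed kinetically by OD600 at 20-min intervals for 16 h at 35±2 °C, with ~5×10^5 CFU/ml in Iso-Sensitest broth. Compounds were tested as twofold dilutions (e.g. 50–0.097 μM final). The concentration giving 90% inhibition of log-phase growth was reported.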

| Structure (SMILES) | IC90 [nM] |
| --- | --- |
| CN(CCCCN)C(=O)c1ccc(NC(=O)c2ncc(-c3cn(C4CC4)nc3C(F)(F)F)n2C)cc1Cl [Example 190, N-(4-((4-aminobutyl)(methyl)carbamoyl)-3-chlorophenyl)-5-(1-cyclopropyl-3-(trifluoromethyl)-1H-pyrazol-4-yl)-1-methyl-1H-imidazole-2-carboxamide hydrochloride] | 173 |
| C#CCn1cc(-c2cnc(C(=O)Nc3ccc(C(=O)NCCOCCN)c(CC)c3)n2C)c(C(F)(F)F)n1 [Example 242, N-[4-[2-(2-aminoethoxy)ethylcarbamoyl]-3-ethyl-phenyl]-1-methyl-5-[1-prop-2-ynyl-3-(trifluoromethyl)pyrazol-4-yl]imidazole-2-carboxamide; formic acid] | 283 |
| CC1CN(C(=O)N[C@H]2C[C@@H](NC(=O)c3ccc(NC(=O)c4ncc(-c5cn(CC#N)nc5C(F)(F)F)n4C)cc3Cl)C2)CCN1 (some centres unmarked) [Example 354, N-[3-[[2-chloro-4-[[5-[1-(cyanomethyl)-3-(trifluoromethyl)pyrazol-4-yl]-1-methyl-imidazole-2-carbonyl]amino]benzoyl]amino]cyclobutyl]-3-methyl-piperazine-1-carboxamide; formic acid] | 463 |
| Cn1c(-c2cn(C3CC3)nc2C(F)(F)F)cnc1C(=O)Nc1ccc(C(=O)N2CCN(S(=O)(=O)N3CCNCC3)CC2)c(Cl)c1 [Example 338, N-(3-chloro-4-(4-(piperazin-1-ylsulfonyl)piperazine-1-carbonyl)phenyl)-5-(1-cyclopropyl-3-(trifluoromethyl)-1H-pyrazol-4-yl)-1-methyl-1H-imidazole-2-carboxamide formate] | 427 |
| C#CCn1cc(-c2cnc(C(=O)Nc3ccc(C(=O)N4CCN(C(=O)OC(C)(C)C)CC4)c(Cl)c3)n2C)c(C(F)(F)F)n1 [Example 34, tert-butyl 4-[2-chloro-4-[[1-methyl-5-[1-prop-2-ynyl-3-(trifluoromethyl)pyrazol-4-yl]imidazole-2-carbonyl]amino]benzoyl]piperazine-1-carboxylate] | 1060 |
| C#CCn1cc(-c2cnc(C(=O)Nc3ccc(C(=O)NC[C@H]4CCNC4)c(Cl)c3)n2C)c(C(F)(F)F)n1 [Example 32, (S)-N-(3-chloro-4-((pyrrolidin-3-ylmethyl)carbamoyl)phenyl)-1-methyl-5-(1-(prop-2-yn-1-yl)-3-(trifluoromethyl)-1H-pyrazol-4-yl)-1H-imidazole-2-carboxamide hydrochloride] | 896 |
| CCc1cc(NC(=O)c2ncc(-c3cn(CC(F)F)nc3C(F)(F)F)n2C)ccc1C(=O)NCCCCCNCC(=O)OC(C)(C)C [Example 219, tert-butyl (5-(4-(5-(1-(2,2-difluoroethyl)-3-(trifluoromethyl)-1H-pyrazol-4-yl)-1-methyl-1H-imidazole-2-carboxamido)-2-ethylbenzamido)pentyl)glycinate] | 245 |
| CC#CCn1cc(-c2cnc(C(=O)Nc3ccc(C(=O)N4CCN(C(=O)C5CCNCC5)CC4)c(Cl)c3)n2C)c(C(F)(F)F)n1 [Example 8, 5-(1-(but-2-yn-1-yl)-3-(trifluoromethyl)-1H-pyrazol-4-yl)-N-(3-chloro-4-(4-(piperidine-4-carbonyl)piperazine-1-carbonyl)phenyl)-1-methyl-1H-imidazole-2-carboxamide hydrochloride] | 327 |
| Cn1c(-c2cn(C3CC3(F)F)nc2C(F)(F)F)cnc1C(=O)Nc1ccc(C(=O)N[C@H]2[C@@H]3CN(C(=O)N4CCNCC4)C[C@@H]32)c(Cl)c1 (stereo partly drawn) [Example 184, N-(3-chloro-4-(((1R,5S,6s)-3-(piperazine-1-carbonyl)-3-azabicyclo[3.1.0]hexan-6-yl)carbamoyl)phenyl)-5-(1-(2,2-difluorocyclopropyl)-3-(trifluoromethyl)-1H-pyrazol-4-yl)-1-methyl-1H-imidazole-2-carboxamide] | 136 |
| Cn1c(-c2cn(C3CC3)nc2C(F)(F)F)cnc1C(=O)Nc1ccc(C(=O)NC[C@H]2CC[C@H](N)CC2)c(Cl)c1 [Example 289, rac-N-(4-((((1r,4r)-4-aminocyclohexyl)methyl)carba-moyl)-3-chlorophenyl)-5-(1-cyclopropyl-3-(trifluoromethyl)-1H-pyrazol-4-yl)-1-methyl-1H-imidazole-2-carboxamide hydrochloride] | 354 |
| CC(C)NC(=O)Cn1cc(-c2cnc(C(=O)Nc3ccc(C(=O)N4CCN(C(=O)C5CCNCC5)CC4)c(Cl)c3)n2C)c(C(F)(F)F)n1 [Example 24, N-(3-chloro-4-(4-(piperidine-4-carbonyl)piperazine-1-carbonyl)phenyl)-5-(1-(2-(isopropylamino)-2-oxoethyl)-3-(trifluoromethyl)-1H-pyrazol-4-yl)-1-methyl-1H-imidazole-2-carboxamide formate] | 981 |
| Cn1c(-c2cn(CC(F)F)nc2C(F)(F)F)cnc1C(=O)Nc1ccc(S(=O)(=O)N2CCN(C(=O)[C@H]3CC[C@@H](N)C3)CC2)c(Cl)c1 [Example 211, N-(4-((4-((1S,3R)-3-aminocyclopentane-1-carbonyl)piperazin-1-yl)sulfonyl)-3-chlorophenyl)-5-(1-(2,2-difluoroethyl)-3-(trifluoromethyl)-1H-pyrazol-4-yl)-1-methyl-1H-imidazole-2-carboxamide hydrochloride] | 231 |
| Cn1c(-c2cn(C3CCC3)nc2C(F)(F)F)cnc1C(=O)Nc1ccc(C(=O)NC2CC(N)C2)c(Cl)c1 (centres unmarked) [Example 125, N-[4-[(3-aminocyclobutyl)carbamoyl]-3-chlorophenyl]-5-[1-cyclobutyl-3-(trifluoromethyl)pyrazol-4-yl]-1-methylimidazole-2-carboxamide;hydrochloride] | 480 |
| C/C=C/Cn1cc(-c2cnc(C(=O)Nc3ccc(C(=O)N4CCN(C(=O)C5CCNCC5)CC4)c(Cl)c3)n2C)c(C(F)(F)F)n1 [Example 312, (E)-5-(1-(but-2-en-1-yl)-3-(trifluoromethyl)-1H-pyrazol-4-yl)-N-(3-chloro-4-(4-(piperidine-4-carbonyl)piperazine-1-carbonyl)phenyl)-1-methyl-1H-imidazole-2-carboxamide hydrochloride] | 385 |
| Cn1c(-c2cn(CC#N)nc2C(F)(F)F)cnc1C(=O)Nc1ccc(C(=O)N[C@H]2C[C@@H](NC(=O)N[C@@H]3CC[C@H](N)C3)C2)c(Cl)c1 [Example 275, N-[4-[[3-[[(1R,3S)-3-aminocyclopentyl]carbamoylami-no]cyclobutyl]carbamoyl]-3-chloro-phenyl]-5-[1-(cyanomethyl)-3-(trifluoromethyl)pyrazol-4-yl]-1-methyl-imidazole-2-carboxamide; formic acid] | 341 |
| CCc1cc(NC(=O)c2ncc(-c3cn(CC#N)nc3C(F)(F)F)n2C)ccc1C(=O)N1CCN(C(=O)N2CCCC2CN)CC1 (centres unmarked) [Example 139, N-[4-[4-[2-(aminomethyl)pyrrolidine-1-carbonyl]piperazine-1-carbonyl]-3-ethylphenyl]-5-[1-(cyanomethyl)-3-(trifluoromethyl)pyrazol-4-yl]-1-methylimidazole-2-carboxamide;formic acid] | 1160 |
| Cn1c(-c2cn(CC#N)nc2C(F)(F)F)cnc1C(=O)Nc1ccc(C(=O)N2CCN(C(=O)C3CCNCC3)CC2)c(Cl)c1 [Example 61, N-[3-Chloro-4-[4-(piperidine-4-carbonyl)piperazine-1-carbonyl]phenyl]-5-[1-(cyanomethyl)-3-(trifluoromethyl)pyrazol-4-yl]-1-methyl-imidazole-2-carboxamide Formate] | 506 |
